Test results taken from patent US6369081B1, “Muscarinic receptor agonists” (The University of Toledo, priority 1999, dated 2002).

How the values were obtained:
[1] = target: T1, M1 muscarinic receptors expressed in A9 L cells (Homo sapiens, UniProt P11229); conditions: mean ± s.e.m.; for PI metabolism (at 100 μM): percentage stimulation above basal levels at 100 μM relative to the carbachol response (100%), two to five assays; for PI metabolism Smax: maximal stimulation from full dose-response curves; for EC50: read-out: PI metabolism EC50, full dose-response curves
T1 sequence (P11229 1-460): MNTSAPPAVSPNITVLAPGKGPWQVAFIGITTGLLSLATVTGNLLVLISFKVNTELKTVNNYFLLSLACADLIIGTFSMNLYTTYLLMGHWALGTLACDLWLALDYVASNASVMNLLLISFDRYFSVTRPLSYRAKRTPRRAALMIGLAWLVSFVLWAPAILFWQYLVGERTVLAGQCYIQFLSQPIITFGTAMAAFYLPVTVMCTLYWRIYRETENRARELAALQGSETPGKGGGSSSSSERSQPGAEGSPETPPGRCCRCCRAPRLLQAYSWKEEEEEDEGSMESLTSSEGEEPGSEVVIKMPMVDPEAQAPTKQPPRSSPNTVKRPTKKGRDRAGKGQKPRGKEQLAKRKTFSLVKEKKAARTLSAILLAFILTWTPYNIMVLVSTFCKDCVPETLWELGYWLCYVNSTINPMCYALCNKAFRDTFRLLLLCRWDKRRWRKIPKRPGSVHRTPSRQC
Excerpt: (§1) Full dose-response curves were obtained for a few compounds.

[2] = target: T2, M1 muscarinic receptors (Homo sapiens, UniProt P11229); conditions: read-out: M1 Receptors Ki; M1 receptors expressed in A9 L cells
T2 sequence (P11229 1-460): T1 sequence (P11229 1-460)
Excerpt: as §1

[3] = target: T3, M2 receptors (Homo sapiens, UniProt P08172); assay: Receptor binding at M2 receptors expressed in A9 L cells (high and low affinity sites); conditions: share of high affinity sites
T3 construct: expressed in transfected cells; host or cells: A9 L cells
T3 sequence (P08172 1-466): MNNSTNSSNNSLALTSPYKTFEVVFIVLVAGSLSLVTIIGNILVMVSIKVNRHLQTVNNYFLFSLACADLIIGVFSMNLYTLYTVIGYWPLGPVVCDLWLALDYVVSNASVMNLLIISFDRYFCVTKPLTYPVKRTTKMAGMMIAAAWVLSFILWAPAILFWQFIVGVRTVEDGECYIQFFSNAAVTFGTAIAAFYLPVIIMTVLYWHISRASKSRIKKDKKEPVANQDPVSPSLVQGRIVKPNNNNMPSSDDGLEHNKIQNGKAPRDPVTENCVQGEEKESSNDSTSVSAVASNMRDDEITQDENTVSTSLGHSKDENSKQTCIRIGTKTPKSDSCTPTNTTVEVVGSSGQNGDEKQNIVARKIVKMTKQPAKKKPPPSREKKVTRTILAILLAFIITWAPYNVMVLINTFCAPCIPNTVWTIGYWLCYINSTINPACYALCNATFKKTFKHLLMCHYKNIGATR

M2 Receptors % High affinity [3] [%] | Structure (SMILES) | PI metabolism (at 100 μM) [1] [%] | PI metabolism Smax [1] [%] | EC50 [1] [nM] | Ki [2] [nM]
 | CN1CCC=C(c2nsnc2OCCCCCCCCCCOc2nsnc2C2=CCCN(C)C2)C1 [(CH2)10] | 76 ± 11 |  |  | 
 | CN1CCC=C(c2nsnc2OCCCCCCCCCCCCOc2nsnc2C2=CCCN(C)C2)C1 [(CH2)12, 1, 12-bis-[3-(1-methyl-1,2,5,6-tetrahydropyrid-3-yl)-1,2,5-thiadiazol-4-yloxy]-dodecane] | 84 ± 9.9 | 190 ± 61 | 340 ± 190 | 
 | CN1CCC=C(c2nsnc2OCCCCCCCCOc2nsnc2C2=CCCN(C)C2)C1 [(CH2)8] | 8.2 ± 1.4 |  |  | 0.19 ± 0.04
26 ± 8.5 | CCCCCCOc1nsnc1C1=CCCN(C)C1 [Xanomeline] |  |  |  | 
 | CN1CCC=C(c2nsnc2OCCCCCCOc2nsnc2C2=CCCN(C)C2)C1 [(CH2)6] | 18 ± 0.06 |  |  | 0.61 ± 0.18
 | CN1CCC=C(c2nsnc2OCCOCCOCCOCCOc2nsnc2C2=CCCN(C)C2)C1 [(CH2)4O3, 2, 2′-bis-{[3-(1-methyl-1,2,5,6-tetrahydropyrid-3-yl)-1,2,5-thiadiazol-4-yloxy]ethyloxy}-diethylether] |  | 250 ± 36 | 8.5 ± 1.2 | 0.12 ± 0.057
 | CN1CCC=C(c2nsnc2OCCCCCCCCCOc2nsnc2C2=CCCN(C)C2)C1 [(CH2)9] | 27 ± 6.2 | 140 ± 34 | 720 ± 370 | 
